According to patent US11292821B2, “Peptides and combination of peptides for use in immunotherapy against lung cancer, including NSCLC, SCLC and other cancers” (Immatics Biotechnologies GmbH, priority 2017, dated 2022):

Assays:
HLA-A*02 = HLA-A*02 (Homo sapiens, UniProt P04439, D140Y/D185E/D98H/E176V/E277Q/G131W/G231S/I119V/I121R/I166T/I218V/N151K/N90K/P208A/P217A/Q86G/Q94H/R138H/R169H); assay: MHC binding assay (UV-ligand exchange, β2m ELISA)
CD8+ T cells = assay: In vitro T-cell priming assay with aAPCs (in vitro immunogenicity for MHC class I presented peptides); assay type: cell-based, human; conditions: in vitro immunogenicity, HLA B*44
HLA-B*44 = assay: MHC binding assay (UV-ligand exchange, β2m ELISA); design: species or system human; conditions: for Peptide exchange (peptide exchange yield, MHC class I binding score): UV-ligand exchange, β2m ELISA

## 115 (MLLETQDALYV; listed as Homo sapiens) [compound 115]
HLA-A*02
  Peptide exchange (peptide exchange yield, MHC class I binding score): “++++” (>75% = ++++)

## 325 (QEQDVDLVQKY; listed as Homo sapiens) [compound 325]
CD8+ T cells
  Wells positive [%]: “+” (<20% = +)
HLA-B*44
  Peptide exchange (peptide exchange yield, MHC class I binding score): “++” (>20% = ++)

## 389 (TLMEQPLTTL; listed as Homo sapiens) [compound 389]
HLA-A*02
  Peptide exchange (peptide exchange yield, MHC class I binding score): “++++” (>75% = ++++)

## 111 (ALCLLLHLL; listed as Homo sapiens) [compound 111]
HLA-A*02
  Peptide exchange (peptide exchange yield, MHC class I binding score): “+” (>10% = +)

## 323 (SEFMQVIF; listed as Homo sapiens) [compound 323]
CD8+ T cells
  Wells positive [%]: “+” (<20% = +)
HLA-B*44
  Peptide exchange (peptide exchange yield, MHC class I binding score): “+++” (>50 =+++)

## 104 (GMLDIFWGV; listed as Homo sapiens) [compound 104]
HLA-A*02
  Peptide exchange (peptide exchange yield, MHC class I binding score): “++++” (>75% = ++++)

## 337 (TENRYCVQL; listed as Homo sapiens) [compound 337]
CD8+ T cells
  Wells positive [%]: “++” (20%-49% = ++)
HLA-B*44
  Peptide exchange (peptide exchange yield, MHC class I binding score): “++++” (>75% = ++++)

## 112 (SVSDGIHSV; listed as Homo sapiens) [compound 112]
HLA-A*02
  Peptide exchange (peptide exchange yield, MHC class I binding score): “++++” (>75% = ++++)

## 117 (FLDPNARPLV; listed as Homo sapiens) [compound 117]
HLA-A*02
  Peptide exchange (peptide exchange yield, MHC class I binding score): “++++” (>75% = ++++)

## 118 (ALSSVLHSI; listed as Homo sapiens) [compound 118]
HLA-A*02
  Peptide exchange (peptide exchange yield, MHC class I binding score): “++++” (>75% = ++++)

## 91 (FALPGLLHA; listed as Homo sapiens) [compound 91]
HLA-A*02
  Peptide exchange (peptide exchange yield, MHC class I binding score): “+++” (>50 = +++)

## 391 (SLIDMRGIETV; listed as Homo sapiens) [compound 391]
HLA-A*02
  Peptide exchange (peptide exchange yield, MHC class I binding score): “++++” (>75% = ++++)

## 342 (HEFSSPSHL; listed as Homo sapiens) [compound 342]
CD8+ T cells
  Wells positive [%]: “+” (<20% = +)
HLA-B*44
  Peptide exchange (peptide exchange yield, MHC class I binding score): “+++” (>50 =+++)

## 320 (MEVDPIGHVYIF; listed as Homo sapiens) [compound 320]
CD8+ T cells
  Wells positive [%]: “+” (<20% = +)
HLA-B*44
  Peptide exchange (peptide exchange yield, MHC class I binding score): “++++” (>75% = ++++)

## 476 (AEEEIMKKI; listed as Homo sapiens) [compound 476]
CD8+ T cells
  Wells positive [%]: “+” (<20% = +)
HLA-B*44
  Peptide exchange (peptide exchange yield, MHC class I binding score): “++” (>20% = ++)

## 328 (FEYDFLLQRI; listed as Homo sapiens) [compound 328]
CD8+ T cells
  Wells positive [%]: “+” (<20% = +)
HLA-B*44
  Peptide exchange (peptide exchange yield, MHC class I binding score): “++++” (>75% = ++++)

## 339 (SEPALLHSW; listed as Homo sapiens) [compound 339]
CD8+ T cells
  Wells positive [%]: “++” (20%-49% = ++)
HLA-B*44
  Peptide exchange (peptide exchange yield, MHC class I binding score): “+++” (>50 =+++)

## 126 (FLSTVTSV; listed as Homo sapiens) [compound 126]
HLA-A*02
  Peptide exchange (peptide exchange yield, MHC class I binding score): “++++” (>75% = ++++)

## 99 (FLKEKVPGI; listed as Homo sapiens) [compound 99]
HLA-A*02
  Peptide exchange (peptide exchange yield, MHC class I binding score): “++++” (>75% = ++++)

## 333 (AETLSTIQI; listed as Homo sapiens) [compound 333]
CD8+ T cells
  Wells positive [%]: “+” (<20% = +)
HLA-B*44
  Peptide exchange (peptide exchange yield, MHC class I binding score): “+++” (>50 =+++)

## 119 (RTADITVTV; listed as Homo sapiens) [compound 119]
HLA-A*02
  Peptide exchange (peptide exchange yield, MHC class I binding score): “++++” (>75% = ++++)

## 326 (QEMQHFLGL; listed as Homo sapiens) [compound 326]
CD8+ T cells
  Wells positive [%]: “+” (<20% = +)
HLA-B*44
  Peptide exchange (peptide exchange yield, MHC class I binding score): “+++” (>50 =+++)

## 123 (LMAFFLAVV; listed as Homo sapiens) [compound 123]
HLA-A*02
  Peptide exchange (peptide exchange yield, MHC class I binding score): “++” (>20% = ++)

## 113 (AVLTGLVEV; listed as Homo sapiens) [compound 113]
HLA-A*02
  Peptide exchange (peptide exchange yield, MHC class I binding score): “++++” (>75% = ++++)

## 116 (VLMEENSKL; listed as Homo sapiens) [compound 116]
HLA-A*02
  Peptide exchange (peptide exchange yield, MHC class I binding score): “++++” (>75% = ++++)

## 100 (RQYPTPFQL; listed as Homo sapiens) [compound 100]
HLA-A*02
  Peptide exchange (peptide exchange yield, MHC class I binding score): “++++” (>75% = ++++)

## 110 (LLADFQALL; listed as Homo sapiens) [compound 110]
HLA-A*02
  Peptide exchange (peptide exchange yield, MHC class I binding score): “++++” (>75% = ++++)

## 121 (ALVDTLTGI; listed as Homo sapiens) [compound 121]
HLA-A*02
  Peptide exchange (peptide exchange yield, MHC class I binding score): “++++” (>75% = ++++)

## 334 (AEDEPAAAHL; listed as Homo sapiens) [compound 334]
CD8+ T cells
  Wells positive [%]: “+” (<20% = +)
HLA-B*44
  Peptide exchange (peptide exchange yield, MHC class I binding score): “++” (>20% = ++)

## 92 (NLRDLLSEV; listed as Homo sapiens) [compound 92]
HLA-A*02
  Peptide exchange (peptide exchange yield, MHC class I binding score): “+++” (>50 = +++)

## 98 (LQSSGLTLLL; listed as Homo sapiens) [compound 98]
HLA-A*02
  Peptide exchange (peptide exchange yield, MHC class I binding score): “++++” (>75% = ++++)

## 106 (FIIDTTYPAYV; listed as Homo sapiens) [compound 106]
HLA-A*02
  Peptide exchange (peptide exchange yield, MHC class I binding score): “++++” (>75% = ++++)

## 105 (SLLTHIPTA; listed as Homo sapiens) [compound 105]
HLA-A*02
  Peptide exchange (peptide exchange yield, MHC class I binding score): “++++” (>75% = ++++)

## 346 (VEAPGPVHVYW; listed as Homo sapiens) [compound 346]
HLA-B*44
  Peptide exchange (peptide exchange yield, MHC class I binding score): “++++” (>75% = ++++)

## 103 (FLYYPDPVL; listed as Homo sapiens) [compound 103]
HLA-A*02
  Peptide exchange (peptide exchange yield, MHC class I binding score): “++++” (>75% = ++++)

## 477 (QENSYQSRL; listed as Homo sapiens) [compound 477]
CD8+ T cells
  Wells positive [%]: “+” (<20% = +)
HLA-B*44
  Peptide exchange (peptide exchange yield, MHC class I binding score): “+++” (>50 =+++)

## 362 (SEKGVIQVY; listed as Homo sapiens) [compound 362]
HLA-B*44
  Peptide exchange (peptide exchange yield, MHC class I binding score): “+++” (>50 =+++)

## 122 (ALLEMFPEITV; listed as Homo sapiens) [compound 122]
HLA-A*02
  Peptide exchange (peptide exchange yield, MHC class I binding score): “++++” (>75% = ++++)

## 109 (LLLGSIGLLGV; listed as Homo sapiens) [compound 109]
HLA-A*02
  Peptide exchange (peptide exchange yield, MHC class I binding score): “++++” (>75% = ++++)

## 319 (AEMLERVIKNY; listed as Homo sapiens) [compound 319]
HLA-B*44
  Peptide exchange (peptide exchange yield, MHC class I binding score): “++++” (>75% = ++++)

## 354 (TEDPTILRI; listed as Homo sapiens) [compound 354]
HLA-B*44
  Peptide exchange (peptide exchange yield, MHC class I binding score): “+++” (>50 =+++)

## AEIEADRSY (listed as Homo sapiens) [SEQ ID NO: 531]
HLA-B*44
  binding to HLA allotype: binds to HLA-B*44

## 487 (AEDQLHHSF; listed as Homo sapiens) [compound 487]
HLA-B*44
  Peptide exchange (peptide exchange yield, MHC class I binding score): “+++” (>50 =+++)

## 331 (EDAQGHIW; listed as Homo sapiens) [compound 331]
CD8+ T cells
  Wells positive [%]: “++” (20%-49% = ++)
HLA-B*44
  Peptide exchange (peptide exchange yield, MHC class I binding score): “+++” (>50 =+++)

## 365 (SEMNVNMKY; listed as Homo sapiens) [compound 365]
HLA-B*44
  Peptide exchange (peptide exchange yield, MHC class I binding score): “++++” (>75% = ++++)

## 329 (NEHPSNNW; listed as Homo sapiens) [compound 329]
CD8+ T cells
  Wells positive [%]: “+” (<20% = +)
HLA-B*44
  Peptide exchange (peptide exchange yield, MHC class I binding score): “+++” (>50 =+++)

## 388 (FSIPEGALVAV; listed as Homo sapiens) [compound 388]
HLA-A*02
  Peptide exchange (peptide exchange yield, MHC class I binding score): “++++” (>75% = ++++)

## 338 (SEGSEPALLHSW; listed as Homo sapiens) [compound 338]
CD8+ T cells
  Wells positive [%]: “+” (<20% = +)
HLA-B*44
  Peptide exchange (peptide exchange yield, MHC class I binding score): “+++” (>50 =+++)

## 480 (GEVSGLTKDF; listed as Homo sapiens) [compound 480]
HLA-B*44
  Peptide exchange (peptide exchange yield, MHC class I binding score): “++” (>20% = ++)

## 114 (ILDERQVLL; listed as Homo sapiens) [compound 114]
HLA-A*02
  Peptide exchange (peptide exchange yield, MHC class I binding score): “++++” (>75% = ++++)

## 361 (SENLFFASF; listed as Homo sapiens) [compound 361]
HLA-B*44
  Peptide exchange (peptide exchange yield, MHC class I binding score): “++++” (>75% = ++++)

## 124 (SVASVLLYL; listed as Homo sapiens) [compound 124]
HLA-A*02
  Peptide exchange (peptide exchange yield, MHC class I binding score): “++++” (>75% = ++++)

## 479 (AEIQPQTQV; listed as Homo sapiens) [compound 479]
HLA-B*44
  Peptide exchange (peptide exchange yield, MHC class I binding score): “+++” (>50 =+++)

## 327 (YEIEARNQVF; listed as Homo sapiens) [compound 327]
HLA-B*44
  Peptide exchange (peptide exchange yield, MHC class I binding score): “+++” (>50 =+++)

## 390 (HIMPTVHTV; listed as Homo sapiens) [compound 390]
HLA-A*02
  Peptide exchange (peptide exchange yield, MHC class I binding score): “++++” (>75% = ++++)

## 102 (SLLEQAIAL; listed as Homo sapiens) [compound 102]
HLA-A*02
  Peptide exchange (peptide exchange yield, MHC class I binding score): “++++” (>75% = ++++)

## 347 (ALNPYQYQY; listed as Homo sapiens) [compound 347]
HLA-B*44
  Peptide exchange (peptide exchange yield, MHC class I binding score): “+++” (>50 =+++)

## 335 (KELEATKQY; listed as Homo sapiens) [compound 335]
HLA-B*44
  Peptide exchange (peptide exchange yield, MHC class I binding score): “++” (>20% = ++)

## 322 (KEVDPAGHSY; listed as Homo sapiens) [compound 322]
CD8+ T cells
  Wells positive [%]: “++” (20%-49% = ++)
HLA-B*44
  Peptide exchange (peptide exchange yield, MHC class I binding score): “++” (>20% = ++)

## 359 (DELFSIALY; listed as Homo sapiens) [compound 359]
HLA-B*44
  Peptide exchange (peptide exchange yield, MHC class I binding score): “+++” (>50 =+++)

## 330 (KEGDLGGKQW; listed as Homo sapiens) [compound 330]
CD8+ T cells
  Wells positive [%]: “+” (<20% = +)
HLA-B*44
  Peptide exchange (peptide exchange yield, MHC class I binding score): “+++” (>50 =+++)

## 321 (AEMLESVIKNY; listed as Homo sapiens) [compound 321]
HLA-B*44
  Peptide exchange (peptide exchange yield, MHC class I binding score): “+++” (>50 =+++)
